Reference: PubChem BioAssay AID1645868 (Buhrlage Lab, Dana-Farber Cancer Institute and Novartis …, 2021)
Calls of active or inactive are those of the source.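 How the source made its calls: active means maximal percent inhibition of the deubiquitinase OTUD3 of at least 30% across the tested doses; inactive means the rest.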

What follows are molecules tested against OTU domain-containing protein 3 (Homo sapiens) (UniProt Q5T2D3) (assay: Validation of screening hits, potency titration, in vitro enzymatic, OTU domain-containing protein 3 DUB inhibitors (AID 1645868)). Settings: purified OTUD3, ubiquitin-rhodamine cleavage fluorescence, 2 h.
Chain of OTU domain-containing protein 3 (Homo sapiens) (Q5T2D3 whole entry, looked up, the tested form may be a part): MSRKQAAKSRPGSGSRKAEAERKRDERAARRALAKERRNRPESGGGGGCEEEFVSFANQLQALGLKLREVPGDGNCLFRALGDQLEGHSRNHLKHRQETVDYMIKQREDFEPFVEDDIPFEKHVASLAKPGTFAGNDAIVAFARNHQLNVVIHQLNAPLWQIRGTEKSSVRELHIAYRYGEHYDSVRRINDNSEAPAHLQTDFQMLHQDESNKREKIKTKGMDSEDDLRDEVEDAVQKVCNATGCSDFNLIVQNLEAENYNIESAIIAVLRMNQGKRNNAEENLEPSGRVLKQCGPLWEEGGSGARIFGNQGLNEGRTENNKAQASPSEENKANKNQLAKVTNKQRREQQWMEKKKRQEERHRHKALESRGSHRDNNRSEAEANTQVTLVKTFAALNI

Compound | IC50
Cc1c(OCC(=O)Nc2nc3ccccc3[nH]2)ccc2c3c(c(=O)oc12)CCC3 | 2.66 µM
O=C(NCc1ccc(-c2nc3cnccc3o2)cc1)c1ccccc1Br | > 50 µM (inactive)
COc1ccc(NCc2nc3ccccc3n2Cc2ccccc2)cc1 | > 50 µM (inactive)
O=C(Cn1c(-c2ccccc2)ncc(C(=O)NC2CC2)c1=O)Nc1ccccc1 | 25.5 µM
CC(C)(C)c1cc(C[C@@H]2C[C@H](NC(=O)N3CCOCC3)C2(C)C)no1 | > 50 µM (inactive)
O=c1c2cnc3nc(-c4cccnc4)nn3c2ccn1CCc1ccccc1 | > 50 µM (inactive)
O=C(CSc1cn(Cc2ccccc2)c2ccccc12)Nc1ccc2c(c1)OCCO2 | > 50 µM (inactive)
Cc1sc2ccn(C)c(=O)c2c1C(=O)NC1CCCC1 | 30.8 µM
O=C(Nc1cccc(-c2nc3ccccc3[nH]2)c1)c1cc2ccccc2oc1=O | 22 µM
c1cnc(-c2n[nH]c(C3CCN(C4CCNC4)CC3)n2)cn1 (configuration not stated) | > 50 µM (inactive)
NS(=O)(=O)c1cccc(NS(=O)(=O)c2ccc(/C=C/C(=O)OCC(=O)c3ccc(Br)cc3)cc2)c1 | > 50 µM (inactive)
COc1ccc2cc3c(nc2c1)OC(=O)N(CCc1cccc(F)c1)C3 | > 50 µM (inactive)
CCc1ccc(-n2c(=O)c3ccccc3n(CC(=O)NCCC3=CCCCC3)c2=O)cc1 | 21.3 µM
Cc1cccc(NC(=O)CN2C(=O)COc3cc(S(=O)(=O)N4CCCC4)ccc32)c1C | 20.9 µM
O=C(Cn1nnc(-c2ccc(F)cc2)n1)NCCc1ccccc1 | > 50 µM (inactive)
O=C(Cc1noc2ccccc12)N1CCN(c2ccc([N+](=O)[O-])cc2)CC1 | > 50 µM (inactive)
CCOc1ccc2c(c1)c(=O)c(C(=O)c1ccccc1)cn2CC(=O)Nc1ccccc1 | 19.4 µM
c1ccc(-c2ccc(NCc3ccc4c(c3)OCO4)nn2)cc1 | 23.1 µM
CS(=O)(=O)N1CCCN(c2nc3cc(Cl)ccc3n3cccc23)CC1 | > 50 µM (inactive)
Cc1ccccc1NC(=O)C(C)n1c(=O)cc(-c2ccccc2)c2c(C)nn(C)c21 (configuration not stated) | 38 µM
O=C(Nc1cc(Cl)ccc1-n1cncn1)c1ccc(S(=O)(=O)N2CCCC2)cc1 | > 50 µM (inactive)
CCOc1ccc(NC(=O)c2nc3c(=O)[nH]c4cc(C)ccc4n3n2)cc1 | > 50 µM (inactive)
Cc1nc(C(=O)N[C@@H](C)C(=O)NCc2ccc3c(c2)OCO3)cc2c1[nH]c1ccccc12 | 37.8 µM
Cc1cc(-c2nnc(SCC(=O)Nc3ccc(Br)c(C)c3)n2N)n[nH]1 | 17.3 µM
COc1ccc(CN2CCCC23CCCN(C(=O)CCc2cccnc2)C3)cc1F (configuration not stated) | 49.5 µM
COc1ccc(C(=O)Nc2nc3n(n2)C(c2ccccc2)CC(=O)N3)cc1 (configuration not stated) | 18.7 µM

Compound | IC50
COc1ccc(CN2C[C@@H]3C[C@]3(c3ccccc3)C(=O)c3ncccc32)cc1 | > 50 µM (inactive)
CC(NC(=O)c1ccccc1)c1nc2ccccc2n1CC(=O)Nc1ccc2c(c1)OCO2 (configuration not stated) | 3.53 µM
O=C(Cn1ncc2c(N3CCCCCC3)ncnc21)NCc1ccccc1 | > 50 µM (inactive)
CCOc1cc(N2CCOCC2)c(OCC)cc1NC(=O)c1cc(-c2ccncc2)nc2ccccc12 | > 50 µM (inactive)
O=C(COc1ccc(Cl)cc1Cl)Nc1ccc2[nH]c(=O)[nH]c2c1 | 19.2 µM
COC1C(O)=C2C(=O)O/C(C)=C/C=C/C=C/C=C/CC(c3ccccc3)NC(=O)/C=C/C=C/C=C\C=C\C2(C)C1O (configuration not stated) | > 50 µM (inactive)
Cc1ccccc1NC(=O)c1cc(S(=O)(=O)N2CCCCCC2)ccc1Cl | 29.7 µM
COc1cccc(N2CCN(C(=O)CCNS(=O)(=O)c3ccc4c(c3)CCC(=O)N4)CC2)c1 | > 50 µM (inactive)
Cc1c(-c2nnc(-c3ccccn3)o2)nnn1-c1cccc(Cl)c1 | 48.5 µM
O=C(NCCc1ccccn1)c1cn2ccnc(-c3ccc(F)cc3)c2n1 | > 50 µM (inactive)
Cc1cccc(N2CCN(C(=O)c3nnn(-c4ccc(F)cc4)n3)CC2)c1 | > 50 µM (inactive)
CC1=C(C)C(c2c(-c3ccc(C)cc3)[nH]c3ccccc23)N(C(C)(C)C)C1=O (configuration not stated) | 8.84 µM
COCCn1c(=S)[nH]c2cc(C(=O)NCCSCc3ccccc3)ccc2c1=O | > 50 µM (inactive)
COc1ccc(C(=O)CSc2nnc(-c3cc4cccc(OC)c4o3)n2C)cc1OC | > 50 µM (inactive)
COc1ccc(CNC(=O)c2[nH]nc3c2CCc2ccccc2-3)cc1 | > 50 µM (inactive)
CC(=O)CN1CC2(CCN(Cc3ccc(F)cc3)CC2)COc2ccccc2S1(=O)=O | > 50 µM (inactive)
O=C(c1ccc2occc2c1)N1CCC(S(=O)(=O)c2ccc(-c3ccco3)cc2)CC1 | > 50 µM (inactive)
O=C1COc2ccccc2N1Cc1noc(-c2ccccc2)n1 | > 50 µM (inactive)
COc1ccc(CC(=O)NCc2ccc3[nH]c(C)cc3c2)cc1 | > 50 µM (inactive)
CN1CC2CN(C(=O)c3ccc(F)cc3)CCN2Cc2ccccc21 (configuration not stated) | > 50 µM (inactive)
O=S1(=O)CCN(Cc2c(F)cccc2F)c2c(F)nc(N3CCOCC3)c(F)c21 | > 50 µM (inactive)
CCCCn1c(=O)c(CCC(=O)OCC(=O)Nc2ccc3c(c2)OCCO3)nc2ccccc21 | > 50 µM (inactive)
Fc1cccc(-n2cc(-c3noc(-c4ccccn4)n3)nn2)c1 | 27 µM
O=C(COc1ccc2c(c1)CCC2)Nc1ccc2c(c1)CCC2 | > 50 µM (inactive)
Cc1c(Cl)cccc1NC(=O)Cn1ccc2ccccc2c1=O | > 50 µM (inactive)

The remaining lines, values ahead:

IC50 | Compound
> 50 µM (inactive) | Cc1ccc(-n2nc(C)c3c2NC(=O)CC3C(=O)c2cc3ccccc3o2)cc1C (configuration not stated)
34 µM | O=C1CC(C(=O)Nc2ccccc2Cl)n2nc(-c3ccccc3)cc2N1 (configuration not stated)
> 50 µM (inactive) | Cc1cc(C)n2nc(CNc3cccc(Cl)c3)nc2n1
35 µM | Cc1ccc(-c2c(C(=O)Nc3ccc(S(N)(=O)=O)cc3)oc(=O)c3ccccc23)cc1
> 50 µM (inactive) | COc1ccc(NC(=O)c2ccnc(Nc3ccc(OC)cc3)c2)cc1
> 50 µM (inactive) | O=C(NCc1ccco1)c1ccc2c(c1)N(Cc1cccc(F)c1)C(=O)c1ccccc1S2
> 50 µM (inactive) | Nc1c(-c2nc(-c3ccc4c(c3)OCO4)cs2)nnn1-c1ccccc1
> 50 µM (inactive) | O=C(OCc1ccc(F)cc1)c1ccc2ccccc2n1
> 50 µM (inactive) | Fc1cccc(-n2cc(-c3noc(-c4ccc[nH]4)n3)nn2)c1
> 50 µM (inactive) | COc1cc(COc2ccc3c(C)c(CC(=O)N4CC[C@@]5(O)CCCC[C@H]5C4)c(=O)oc3c2C)cc(OC)c1OC
> 50 µM (inactive) | Cc1ccc2c(c1)N=C(c1ccc([N+](=O)[O-])cc1)CO2
39.3 µM | COc1ccccc1NC(=O)c1cc(-c2ccccn2)nc2ccccc12
> 50 µM (inactive) | O=C(COc1cccc(-n2cnnn2)c1)Nc1ccc2c(c1)OCCO2
> 50 µM (inactive) | CC(C)c1nc2sc3c(NCc4ccco4)ncnc3c2c2c1CCC2
23.2 µM | COc1ccc(NC(=O)Cn2cc(C(=O)c3ccc(F)cc3)c(=O)c3cc(C)ccc32)cc1
30 µM | CCCc1nc2c(sc3nc4c(cc32)COC(C)(C)C4)c(=O)n1CC(=O)Nc1ccccc1C
24.4 µM | O=C(CSc1ncnc2c1oc1ccccc12)NC1CCCC1
> 50 µM (inactive) | O=C(c1cc2ccccc2o1)N1CC=C(c2ccccc2)CC1
21.8 µM | CC(=O)Nc1ccc(NC(=O)c2cc(-c3cc(C)cc(C)c3O)n[nH]2)cc1
10.4 µM | O=C(Nc1cccc(Br)c1)c1cc(-c2cccnc2)n[nH]1
4.68 µM | CCOc1ccc(NC(=O)Cn2cc(C(=O)c3ccc(Cl)cc3)c(=O)c3cc(OC)ccc32)cc1
> 50 µM (inactive) | CC(C)N1CC2CN(C(=O)c3ccccc3)CCN2Cc2ccccc21 (configuration not stated)
> 50 µM (inactive) | Cc1nc2ccccc2nc1SCC(=O)Nc1ccc2c(c1)OCO2

IC50 | Compound
> 50 µM (inactive) | Cc1cccc(C(=O)N2CCc3cc(-c4nc(NC(=O)CN5CCc6ccccc6C5)sc4C)ccc32)c1
> 50 µM (inactive) | CC1CCN(c2cc(-n3cnc(C(=O)N4CCCC(C)C4)c3)ncn2)CC1 (configuration not stated)
44.9 µM | Cc1ccc2[nH]c3c(=O)n(CC4CCCO4)cnc3c2c1 (configuration not stated)
> 50 µM (inactive) | Cc1sc(NC(=O)CN2CCc3ccccc3C2)nc1-c1ccc2c(c1)CCN2C(=O)C1CCCCC1
> 50 µM (inactive) | CCN1C(=O)COc2ccc(NC(=O)c3ccc(OCc4nonc4C)cc3)cc21
42 µM | O=C(CNc1nc(Nc2ccccc2F)nc(Nc2ccccc2F)n1)Nc1ccccc1
> 50 µM (inactive) | O=C(CCC1CCCCC1)Nc1ccccc1C(=O)N1CCOCC1
> 50 µM (inactive) | O=C1C[C@@H]2O[C@H](CNC(=O)[C@@H]3CN(CCN3C(=O)C3CCOCC3)C(=O)[C@@H]3C[C@@H](CN3Cc3ccc(F)c(F)c3)N1)[C@@H](O)[C@H]2O
> 50 µM (inactive) | Cc1ccc2c(c1)c(=O)c(C(=O)c1ccc(F)cc1)cn2CC(=O)Nc1ccc2c(c1)OCCO2
> 50 µM (inactive) | O=C(c1ccco1)N1CCN=C1SCc1ccccc1F
> 50 µM (inactive) | C/C=C\C1=CC(=O)[C@]23C[C@H]2[C@]2(C)CO[C@@]1(O)[C@@]3(O)O2
> 50 µM (inactive) | COc1ccc(OC)c(NC(=O)CNC(=O)c2cc3c(OC)cccc3[nH]2)c1
> 50 µM (inactive) | CCCc1nc2sc3c(NCc4ccco4)ncnc3c2c2c1CCC2
45.3 µM | Cc1nc(NCc2ccccn2)c2cc(-c3ccccc3)sc2n1
> 50 µM (inactive) | O=C(NC1CCCCC1)c1cc2c(cn1)[nH]c1ccccc12
> 50 µM (inactive) | CCCc1nc2sc3c(NCCCN4CCOCC4)ncnc3c2c2c1CCC2
> 50 µM (inactive) | COc1ccc(OC)c(-c2cn3ccn(-c4ccc5c(c4)CCC5)c(=O)c3n2)c1
> 50 µM (inactive) | CCc1ccccc1NC(=O)c1cc(-c2ccccn2)n[nH]1
0.188 µM | CC1(O)CC(=O)c2c(cc3cc(O)cc(O)c3c2O)C1 (configuration not stated)
15.4 µM | O=C(CC(C(=O)Nc1ccc2c(c1)OCO2)C(=O)c1ccccc1)Nc1ccc(Cl)cc1F (configuration not stated)
> 50 µM (inactive) | Cc1ccc(CNC(=O)c2cnc3ccccc3n2)cc1
40.7 µM | O=C(NCc1ccc2c(c1)OCO2)c1cc(-c2cc(Cl)ccc2O)n[nH]1
> 50 µM (inactive) | O=C(c1cnccn1)N1CCc2[nH]c3ccc(F)cc3c2C1
